Measurements: US4740601A, “Imidazole derivatives having antimicrobial activities” (SS Pharmaceutical Co., Ltd., priority 1985, dated 1988)
≈ marks a conversion by molar mass, not a printed value.

Each molecule was assayed on Bacillus subtilis ATCC 6633 (assay: antimicrobial activity, MIC). Details: Bacillus subtilis, ATCC6633, Bacillus subtilis ATCC 6633; read-out: MIC.
Assay type: cell-based
Molecule CCCCOc1ccccc1C(=C(Br)Br)n1ccnc1 [Compound 93] has an MIC of 12.5 µg/mL (≈ 31.2 µM). In the case of CCCCOc1ccccc1C(=CSCc1ccccc1)n1ccnc1 (single isomer, unassigned) [Compound 8], the MIC is reported as 3.12 µg/mL (≈ 8.56 µM).

Each molecule was assayed on Staphylococcus aureus FDA 209P (assay: antimicrobial activity, MIC). Details: Staphylococcus aureus, FDA209P, read-out: MIC.
Assay type: cell-based
CCCCOc1ccccc1C(=C(Br)Br)n1ccnc1 [Compound 93] showed an MIC of 25 µg/mL (≈ 62.5 µM). In the case of CCCCOc1ccccc1C(=CSCc1ccccc1)n1ccnc1 (single isomer, unassigned) [Compound 8], the MIC is reported as 25 µg/mL (≈ 68.6 µM).

These molecules were tested on Staphylococcus aureus Terajima (assay: antimicrobial activity, MIC). Details: Staphylococcus aureus, read-out: MIC.
Assay type: cell-based
CCCCOc1ccccc1C(=C(Br)Br)n1ccnc1 [Compound 93] gave an MIC of 25 µg/mL (≈ 62.5 µM). Work on CCCCOc1ccccc1C(=CSCc1ccccc1)n1ccnc1 (single isomer, unassigned) [Compound 8] yielded an MIC of 6.25 µg/mL (≈ 17.1 µM).

The molecules below were run on Staphylococcus aureus Smith (assay: antimicrobial activity, MIC). Details: Staphylococcus aureus, read-out: MIC.
Assay type: cell-based
CCCCOc1ccccc1C(=C(Br)Br)n1ccnc1 [Compound 93] was tested, and the MIC was 25 µg/mL (≈ 62.5 µM). CCCCOc1ccccc1C(=CSCc1ccccc1)n1ccnc1 (single isomer, unassigned) [Compound 8] gave an MIC of 6.25 µg/mL (≈ 17.1 µM).

The molecules below were run on Staphylococcus epidermidis ATCC 12228 (assay: antimicrobial activity, MIC). Details: Staphylococcus epidermidis, ATCC12228, Staphylococcus epidermidis ATCC 12228; read-out: MIC.
Assay type: cell-based
CCCCOc1ccccc1C(=C(Br)Br)n1ccnc1 [Compound 93] was tested, and the MIC was 25 µg/mL (≈ 62.5 µM). With CCCCOc1ccccc1C(=CSCc1ccccc1)n1ccnc1 (single isomer, unassigned) [Compound 8] the MIC was 6.25 µg/mL (≈ 17.1 µM).

What follows are molecules tested on Sarcina lutea ATCC 9341 (assay: antimicrobial activity, MIC). Details: Micrococcus luteus, ATCC9341, Sarcina lutea ATCC 9341; read-out: MIC.
Assay type: cell-based
CCCCOc1ccccc1C(=C(Br)Br)n1ccnc1 [Compound 93] was tested, and the MIC was 25 µg/mL (≈ 62.5 µM). Molecule CCCCOc1ccccc1C(=CSCc1ccccc1)n1ccnc1 (single isomer, unassigned) [Compound 8] has an MIC of 3.12 µg/mL (≈ 8.56 µM).

What follows are molecules tested on Streptococcus faecalis IFO 12964 (assay: antimicrobial activity, MIC). Details: Enterococcus faecalis, IFO12964, Streptococcus faecalis IFO 12964; read-out: MIC.
Assay type: cell-based
In the case of CCCCOc1ccccc1C(=C(Br)Br)n1ccnc1 [Compound 93], the MIC is reported as 50 µg/mL (≈ 125 µM). With CCCCOc1ccccc1C(=CSCc1ccccc1)n1ccnc1 (single isomer, unassigned) [Compound 8] the MIC was > 100 µg/mL.

Each molecule was assayed on Micrococcus lysodeixticus IFO 3333 (assay: antimicrobial activity, MIC). Details: Micrococcus, IFO3333, Micrococcus lysodeixticus IFO 3333; read-out: MIC.
Assay type: cell-based
In the case of CCCCOc1ccccc1C(=C(Br)Br)n1ccnc1 [Compound 93], the MIC is reported as 6.25 µg/mL (≈ 15.6 µM). In the case of CCCCOc1ccccc1C(=CSCc1ccccc1)n1ccnc1 (single isomer, unassigned) [Compound 8], the MIC is reported as 1.56 µg/mL (≈ 4.28 µM).

These molecules were tested on Candida albicans NHL 4019 (assay: antimicrobial activity, MIC). Details: Candida albicans, NHL4019, Candida albicans NHL 4019; read-out: MIC.
Assay type: cell-based
Work on CCCCOc1ccccc1C(=C(Br)Br)n1ccnc1 [Compound 93] yielded an MIC of 100 µg/mL (≈ 250 µM). With CCCCOc1ccccc1C(=CSCc1ccccc1)n1ccnc1 (single isomer, unassigned) [Compound 8] the MIC was > 100 µg/mL.

The molecules below were run on Candida albicans Yu-1200 (assay: antimicrobial activity, MIC). Details: YU1200, read-out: MIC.
Assay type: cell-based
In the case of CCCCOc1ccccc1C(=C(Br)Br)n1ccnc1 [Compound 93], the MIC is reported as > 100 µg/mL. With CCCCOc1ccccc1C(=CSCc1ccccc1)n1ccnc1 (single isomer, unassigned) [Compound 8] the MIC was > 100 µg/mL.

What follows are molecules tested on Saccharomyces cerevisiae ATCC 9763 (assay: antimicrobial activity, MIC). Details: Saccharomyces cerevisiae, ATCC9763, Saccharomyces cerevisiae ATCC 9763; read-out: MIC.
Assay type: cell-based
With CCCCOc1ccccc1C(=C(Br)Br)n1ccnc1 [Compound 93] the MIC was < 0.2 µg/mL. CCCCOc1ccccc1C(=CSCc1ccccc1)n1ccnc1 (single isomer, unassigned) [Compound 8] was tested, and the MIC was < 0.2 µg/mL.

The molecules below were run on Saccharomyces ruxii 6507 (assay: antimicrobial activity, MIC). Details: Saccharomyces ruxii 6507; read-out: MIC.
Assay type: cell-based
With CCCCOc1ccccc1C(=C(Br)Br)n1ccnc1 [Compound 93] the MIC was < 0.2 µg/mL. With CCCCOc1ccccc1C(=CSCc1ccccc1)n1ccnc1 (single isomer, unassigned) [Compound 8] the MIC was < 0.2 µg/mL.

These molecules were tested on Aspergillus niger ATCC 9642 (assay: antimicrobial activity, MIC). Details: Aspergillus niger, ATCC9642, Aspergillus niger ATCC 9642; read-out: MIC.
Assay type: cell-based
In the case of CCCCOc1ccccc1C(=C(Br)Br)n1ccnc1 [Compound 93], the MIC is reported as > 100 µg/mL. Molecule CCCCOc1ccccc1C(=CSCc1ccccc1)n1ccnc1 (single isomer, unassigned) [Compound 8] has an MIC of 12.5 µg/mL (≈ 34.3 µM).

Each molecule was assayed on Penicillium chrysogenum ATCC 6010 (assay: antimicrobial activity, MIC). Details: Penicillium chrysogenum, ATCC6010, Penicillium chrysogenum ATCC 6010; read-out: MIC.
Assay type: cell-based
With CCCCOc1ccccc1C(=C(Br)Br)n1ccnc1 [Compound 93] the MIC was > 100 µg/mL. CCCCOc1ccccc1C(=CSCc1ccccc1)n1ccnc1 (single isomer, unassigned) [Compound 8] gave an MIC of 12.5 µg/mL (≈ 34.3 µM).

The molecules below were run on Trichophyton mentagrophytes QM 248 (assay: antimicrobial activity, MIC). Details: Trichophyton mentagrophytes, QM248, Trichophyton mentagrophytes QM 248; read-out: MIC.
Assay type: cell-based
With CCCCOc1ccccc1C(=C(Br)Br)n1ccnc1 [Compound 93] the MIC was 1.56 µg/mL (≈ 3.9 µM). CCCCOc1ccccc1C(=CSCc1ccccc1)n1ccnc1 (single isomer, unassigned) [Compound 8] gave an MIC of 0.39 µg/mL (≈ 1.07 µM).

Each molecule was assayed on Trichophyton mentagrophytes IFO 5812 (assay: antimicrobial activity, MIC). Details: Trichophyton mentagrophytes, IFO5812, Trichophyton mentagrophytes IFO 5812; read-out: MIC.
Assay type: cell-based
For CCCCOc1ccccc1C(=C(Br)Br)n1ccnc1 [Compound 93], the MIC was < 0.2 µg/mL. In the case of CCCCOc1ccccc1C(=CSCc1ccccc1)n1ccnc1 (single isomer, unassigned) [Compound 8], the MIC is reported as 0.39 µg/mL (≈ 1.07 µM).

Each molecule was assayed on Trichophyton tonsurans IFO 5928 (assay: antimicrobial activity, MIC). Details: Trichophyton tonsurans, IFO5928, Trichophyton tonsurans IFO 5928; read-out: MIC.
Assay type: cell-based
CCCCOc1ccccc1C(=C(Br)Br)n1ccnc1 [Compound 93] gave an MIC of 1.56 µg/mL (≈ 3.9 µM). CCCCOc1ccccc1C(=CSCc1ccccc1)n1ccnc1 (single isomer, unassigned) [Compound 8] was tested, and the MIC was < 0.2 µg/mL.

Each molecule was assayed on Trichophyton rubrum NHL J (assay: antimicrobial activity, MIC). Details: Trichophyton rubrum, Trichophyton rubrum NHL J; read-out: MIC.
Assay type: cell-based
CCCCOc1ccccc1C(=C(Br)Br)n1ccnc1 [Compound 93] was tested, and the MIC was 0.39 µg/mL (≈ 0.975 µM). CCCCOc1ccccc1C(=CSCc1ccccc1)n1ccnc1 (single isomer, unassigned) [Compound 8] was tested, and the MIC was < 0.2 µg/mL.

These molecules were tested on Microsporum gypseum IFO 8231 (assay: antimicrobial activity, MIC). Details: Nannizzia gypsea, IFO8231, Microsporum gypseum IFO 8231; read-out: MIC.
Assay type: cell-based
Molecule CCCCOc1ccccc1C(=C(Br)Br)n1ccnc1 [Compound 93] has an MIC of 6.25 µg/mL (≈ 15.6 µM). Molecule CCCCOc1ccccc1C(=CSCc1ccccc1)n1ccnc1 (single isomer, unassigned) [Compound 8] has an MIC of 0.39 µg/mL (≈ 1.07 µM).

What follows are molecules tested on Microsporum audounii IFO 6074 (assay: antimicrobial activity, MIC). Details: Microsporum, IFO6074, Microsporum audounii IFO 6074; read-out: MIC.
Assay type: cell-based
With CCCCOc1ccccc1C(=C(Br)Br)n1ccnc1 [Compound 93] the MIC was < 0.2 µg/mL. With CCCCOc1ccccc1C(=CSCc1ccccc1)n1ccnc1 (single isomer, unassigned) [Compound 8] the MIC was < 0.2 µg/mL.

What follows are molecules tested on Microsporum cookei IFO 8303 (assay: antimicrobial activity, MIC). Details: Paraphyton cookei, IFO8303, Microsporum cookei IFO 8303; read-out: MIC.
Assay type: cell-based
For CCCCOc1ccccc1C(=C(Br)Br)n1ccnc1 [Compound 93], the MIC was 12.5 µg/mL (≈ 31.2 µM). Molecule CCCCOc1ccccc1C(=CSCc1ccccc1)n1ccnc1 (single isomer, unassigned) [Compound 8] has an MIC of 12.5 µg/mL (≈ 34.3 µM).

What follows are molecules tested on Epidermophyton floccosum IFO 9045 (assay: antimicrobial activity, MIC). Details: Epidermophyton floccosum, IFO9045, Epidermophyton floccosum IFO 9045; read-out: MIC.
Assay type: cell-based
In the case of CCCCOc1ccccc1C(=C(Br)Br)n1ccnc1 [Compound 93], the MIC is reported as 25 µg/mL (≈ 62.5 µM). CCCCOc1ccccc1C(=CSCc1ccccc1)n1ccnc1 (single isomer, unassigned) [Compound 8] gave an MIC of 6.25 µg/mL (≈ 17.1 µM).

What follows are molecules tested on Aspergillus oryzae IMF 4014 (assay: antimicrobial activity, MIC). Details: Aspergillus oryzae, IMF4014, Aspergillus oryzae IMF 4014; read-out: MIC.
Assay type: cell-based
CCCCOc1ccccc1C(=C(Br)Br)n1ccnc1 [Compound 93] was tested, and the MIC was > 100 µg/mL. CCCCOc1ccccc1C(=CSCc1ccccc1)n1ccnc1 (single isomer, unassigned) [Compound 8] gave an MIC of 12.5 µg/mL (≈ 34.3 µM).

These molecules were tested on Cladosporium fulvum IAM 5006 (assay: antimicrobial activity, MIC). Details: Fulvia fulva, IAM5006, Cladosporium fulvum IAM 5006; read-out: MIC.
Assay type: cell-based
For CCCCOc1ccccc1C(=C(Br)Br)n1ccnc1 [Compound 93], the MIC was > 100 µg/mL. In the case of CCCCOc1ccccc1C(=CSCc1ccccc1)n1ccnc1 (single isomer, unassigned) [Compound 8], the MIC is reported as > 100 µg/mL.

What follows are molecules tested on Fusarium moniliforme IAM 5062 (assay: antimicrobial activity, MIC). Details: Fusarium verticillioides, IAM5062, Fusarium moniliforme IAM 5062; read-out: MIC.
Assay type: cell-based
For CCCCOc1ccccc1C(=C(Br)Br)n1ccnc1 [Compound 93], the MIC was > 100 µg/mL. CCCCOc1ccccc1C(=CSCc1ccccc1)n1ccnc1 (single isomer, unassigned) [Compound 8] gave an MIC of 12.5 µg/mL (≈ 34.3 µM).

The molecules below were run on Helminthosporium sesamum IAM 5012 (assay: antimicrobial activity, MIC). Details: Helminthosporium, IAM5012, Helminthosporium sesamum IAM 5012; read-out: MIC.
Assay type: cell-based
Work on CCCCOc1ccccc1C(=C(Br)Br)n1ccnc1 [Compound 93] yielded an MIC of 50 µg/mL (≈ 125 µM). For CCCCOc1ccccc1C(=CSCc1ccccc1)n1ccnc1 (single isomer, unassigned) [Compound 8], the MIC was 0.78 µg/mL (≈ 2.14 µM).

What follows are molecules tested on Pyricularia oryzae IAM 5016 (assay: microbe, parasite or virus in culture). Details: Pyricularia oryzae, IAM5016, Pyricularia oryzae IAM 5016.
Assay type: cell-based
For CCCCOc1ccccc1C(=C(Br)Br)n1ccnc1 [Compound 93], the MIC was 0.39 µg/mL (≈ 0.975 µM). CCCCOc1ccccc1C(=CSCc1ccccc1)n1ccnc1 (single isomer, unassigned) [Compound 8] was tested, and the MIC was < 0.2 µg/mL.

These molecules were tested on Debaryomyces kloeckeri IFO 0015 (assay: antimicrobial activity, MIC). Details: IFO0015, read-out: MIC.
Assay type: cell-based
With CCCCOc1ccccc1C(=C(Br)Br)n1ccnc1 [Compound 93] the MIC was 6.25 µg/mL (≈ 15.6 µM). CCCCOc1ccccc1C(=CSCc1ccccc1)n1ccnc1 (single isomer, unassigned) [Compound 8] was tested, and the MIC was 6.25 µg/mL (≈ 17.1 µM).

Each molecule was assayed on Gibberella fujikuroi IAM 8046 (assay: antimicrobial activity, MIC). Details: Fusarium fujikuroi, IAM8046, Gibberella fujikuroi IAM 8046; read-out: MIC.
Assay type: cell-based
In the case of CCCCOc1ccccc1C(=C(Br)Br)n1ccnc1 [Compound 93], the MIC is reported as > 100 µg/mL. CCCCOc1ccccc1C(=CSCc1ccccc1)n1ccnc1 (single isomer, unassigned) [Compound 8] showed an MIC of 6.25 µg/mL (≈ 17.1 µM).
